Laboratory results from paper PMC7307922 (Journal of Medicinal Chemistry, 2020).
Positions count from the first letter of the chain named.

How the values were obtained:
[1] = target: T1, hFFA3 (Homo sapiens, UniProt O14843); assay: cell-based
T1 sequence (O14843 1-346): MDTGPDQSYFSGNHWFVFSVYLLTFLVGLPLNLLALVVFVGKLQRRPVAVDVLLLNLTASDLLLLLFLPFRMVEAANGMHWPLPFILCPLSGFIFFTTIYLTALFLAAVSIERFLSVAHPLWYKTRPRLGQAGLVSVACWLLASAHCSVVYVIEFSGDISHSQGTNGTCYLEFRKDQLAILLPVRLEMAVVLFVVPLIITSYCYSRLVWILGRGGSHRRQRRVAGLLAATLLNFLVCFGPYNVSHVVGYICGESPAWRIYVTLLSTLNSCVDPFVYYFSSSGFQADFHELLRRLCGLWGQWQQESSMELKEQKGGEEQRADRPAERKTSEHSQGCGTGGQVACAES
Outline: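 HEK293 Flp-In T-REx cells stably carrying FFA3-eYFP, expression induced overnight with doxycycline, 3000 cells/well; compounds co-incubated 1 h to inhibit 0.3 μM forskolin-induced cAMP, read with HTRF cAMP kit.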

[2] = target: T2, hFFA3 Q131A (Homo sapiens, UniProt O14843, Q131A); assay: Potency at FFA3 mutant Q131A; assay type: cell-based
T2 sequence (O14843 1-346 Q131A): T1 sequence (O14843 1-346) with Q131A
Description: (§1) The previously published compound 1 was not affected by mutation of either R185A or R258A in the orthosteric binding site, and the compounds were therefore believed to be allosteric modulators. […] After the publication of the FFA1 crystal structure in complex with an allosteric agonist located in the TM region close to the intracellular site,[32] a homology model of hFFA3 was constructed using Modeller. […] Thus, additional docking of (R)-1 in this site were performed to find poses where Q131, but not R126, show a central role in binding. […] The narrow binding cavity around the core scaffold is in agreement with the restrained SAR observed for this series and the furan moiety pointing out of the binding cavity might explain the flexibility in substituents at this site (Figure 3c,d). Although Q131A impacts the potency of (R)-1 with high significance, the magnitude of the effect is lower than what would be generally expected for the removal of a hydrogen bond interaction; thus, additional studies are required to confirm the proposed binding site.

[3] = target: T3, hFFA3 E112A (Homo sapiens, UniProt O14843, E112A); assay: Potency at FFA3 mutant E112A; assay type: cell-based
T3 sequence (O14843 1-346 E112A): T1 sequence (O14843 1-346) with E112A
Description: as §1

[4] = target: T4, hFFA3 R126A (Homo sapiens, UniProt O14843, R126A); assay: Potency at FFA3 mutant R126A; assay type: cell-based
T4 sequence (O14843 1-346 R126A): T1 sequence (O14843 1-346) with R126A
Description: as §1

[5] = target: T1, hFFA3; assay: biochemical; details: for GTPγS pEC50: hFFA3, mean of ≥3 independent experiments ± standard error
Description: The ligands were initially screened in a human FFA3-dependent [^35S]GTPγS binding assay as this assay reflects receptor-mediated activation of Gi/o proteins and is known to generally correlate well with ligand affinity.[30] Analogues of particular interest were tested further in a cAMP inhibition assay as this is an important downstream effect of Gi-activation. […] It is furthermore performed in whole cells, is more downstream, includes G protein signal amplification, and therefore better reflects a more natural ligand–receptor response.
Membranes were isolated from Flp-In T-REx HEK293 cells treated with 100 ng/mL doxycycline to induce receptor expression. Cells were washed with ice-cold phosphate-buffered saline and removed from dishes by scraping before being centrifuged for 5 min at 4 °C, 3000 rpm. Pellets were resuspended in TE buffer (75 mM Tris–HCl, 5 mM EDTA; pH 7.5) with the addition of a protease inhibitor mixture (Roche Applied Science, West Sussex, UK). This was then homogenized with a 5 mL hand-held homogenizer and subsequently centrifuged at 1500 rpm for 5 min at 4 °C, from which the supernatant was collected and further centrifuged at 50 000 rpm for 30 min at 4 °C. The resulting pellet was resuspended in TE buffer, and the protein content was measured using a BCA protein assay kit (Pierce, Fisher Scientific, Loughborough, UK).
Reactions were initiated with the addition of [^35S]GTPγS at 50 nCi per tube; reactions were terminated after 1 h of incubation at 25 °C by rapid filtration through GF/C glass filters using a 24-well Brandel cell harvester (Alpha Biotech, Glasgow, UK). Unbound radioligand was removed from filters by washing three times with ice-cold wash buffer (50 mM Tris–HCl, pH 7.4, and 10 mM MgCl2), and [^35S]GTPγS binding was determined by liquid scintillation spectrometry.

[6] = target: T1, hFFA3; parameters: expressed in transfected cells; host or cells: Flp-In T-REx HEK293 (membranes); method as in PMID 24870406; details: previously characterized; cited from earlier work
[7] = efficacy relative to maximal response of propionate

Compound | EC50 [1] | reduction of potency by mutation Q131A ([2]; p < 0.001) | effect of mutation E112A on potency [3] | effect of mutation R126A on potency [4] | GTPγS pEC50 [5] | activity alone and with propionate [6] | GTPγS Emax [5, 7] | cAMP Emax [1, 7] | cAMP pEC50 ([1]; hFFA3, compound alone, mean of ≥3 independent experiments ± standard error) | effect of mutation Q131A on potency [2]
CC1=C(C(=O)Nc2ccccc2C)[C@H](c2ccco2)C2=C(CCCC2=O)N1 [(R)-1] | 295 nM | > 3 fold | did not affect | did not affect |  |  |  |  |  | 
CC1=C(C(=O)Nc2ccccc2C)C(c2ccccc2Br)C2=C(CCCC2=O)N1 (stereo not shown) [Compound 5] |  |  |  |  | nr^e | inactive alone but to act as a PAM of propionate |  |  |  | 
propionate [Compound C3, reference compound] |  |  | did not affect | did not affect | 4.97 ± 0.08 |  | 100 | 100 | 4.93 ± 0.10 | did not affect
